Data published in US20250064941A1, “SIGLEC LIGANDS, CONJUGATES, AND METHODS OF USE THEREOF” (Osprey Biopharmaceuticals, Inc., priority 2023, published 2025).

What was measured:
[1] = target: T1, mouse Siglec-2-Fc-Avi (CD22) (Mus musculus, UniProt P35329); assay: SPR binding affinity to mouse CD22; details: steady-state analysis
T1 construct: made in house
T1 sequence (P35329 22-708 limits assumed): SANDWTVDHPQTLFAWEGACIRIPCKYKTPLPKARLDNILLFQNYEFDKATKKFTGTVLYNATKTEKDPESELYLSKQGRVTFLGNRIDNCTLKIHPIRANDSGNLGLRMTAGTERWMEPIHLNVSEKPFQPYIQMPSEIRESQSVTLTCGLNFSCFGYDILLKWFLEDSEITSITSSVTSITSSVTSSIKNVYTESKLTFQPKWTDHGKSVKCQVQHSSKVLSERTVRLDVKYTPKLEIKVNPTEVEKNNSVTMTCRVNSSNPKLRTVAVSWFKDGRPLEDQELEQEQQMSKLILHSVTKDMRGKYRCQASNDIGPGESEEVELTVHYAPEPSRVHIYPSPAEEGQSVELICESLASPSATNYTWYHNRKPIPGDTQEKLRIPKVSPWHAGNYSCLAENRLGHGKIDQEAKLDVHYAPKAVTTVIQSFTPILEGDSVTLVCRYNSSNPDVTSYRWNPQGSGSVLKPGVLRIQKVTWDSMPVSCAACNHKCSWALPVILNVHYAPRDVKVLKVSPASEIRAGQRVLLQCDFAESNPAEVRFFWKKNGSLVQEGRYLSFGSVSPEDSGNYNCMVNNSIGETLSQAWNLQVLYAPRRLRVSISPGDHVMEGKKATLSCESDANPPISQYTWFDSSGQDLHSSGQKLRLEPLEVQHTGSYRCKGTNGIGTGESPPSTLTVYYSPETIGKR
Summary of the method: (§1)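 Steady-state fits gave the affinities. Before capture on a streptavidin surface, biotinylated CD22 had native sialic acids stripped (SialoExo, 4 hours, 37° C.). Running buffer: 10 mM HEPES pH 7.5, 150 mM NaCl, 0.05% Tween-20, 1% DMSO, with DMSO solvent correction.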

[2] = target: T2, human Siglec-2/CD22 protein (Homo sapiens, UniProt P20273); assay: SPR binding affinity to human CD22; details: steady-state analysis
T2 construct: purchased Acro Biosystems SI2-H82E3
T2 sequence (P20273 20-847): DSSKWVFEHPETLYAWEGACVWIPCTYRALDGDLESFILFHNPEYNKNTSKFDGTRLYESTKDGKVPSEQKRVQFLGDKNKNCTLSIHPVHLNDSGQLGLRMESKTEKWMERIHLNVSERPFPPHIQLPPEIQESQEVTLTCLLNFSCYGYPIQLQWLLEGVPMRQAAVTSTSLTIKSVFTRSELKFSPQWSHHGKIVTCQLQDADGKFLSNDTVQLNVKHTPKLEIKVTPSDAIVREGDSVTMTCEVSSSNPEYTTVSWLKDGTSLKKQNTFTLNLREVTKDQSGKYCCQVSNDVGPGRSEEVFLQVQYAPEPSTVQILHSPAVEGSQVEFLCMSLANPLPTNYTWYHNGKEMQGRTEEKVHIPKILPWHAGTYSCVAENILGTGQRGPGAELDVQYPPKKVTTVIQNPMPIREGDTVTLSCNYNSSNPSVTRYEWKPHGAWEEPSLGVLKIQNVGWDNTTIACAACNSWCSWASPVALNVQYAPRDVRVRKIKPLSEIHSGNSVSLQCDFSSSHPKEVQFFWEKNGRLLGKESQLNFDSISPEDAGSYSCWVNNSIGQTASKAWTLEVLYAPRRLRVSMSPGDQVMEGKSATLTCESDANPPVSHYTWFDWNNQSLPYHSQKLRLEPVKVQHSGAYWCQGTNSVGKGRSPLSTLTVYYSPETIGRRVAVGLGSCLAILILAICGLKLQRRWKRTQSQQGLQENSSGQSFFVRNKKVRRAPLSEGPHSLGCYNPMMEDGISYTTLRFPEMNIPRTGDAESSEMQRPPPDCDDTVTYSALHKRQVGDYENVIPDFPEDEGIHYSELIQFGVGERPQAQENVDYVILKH
Summary of the method: as §1

cynomolgus Siglec-2/CD22 = cynomolgus Siglec-2/CD22 (Macaca fascicularis, UniProt A0A2K5WCZ6); assay: biochemical; format: binding; details: SPR, steady-state analysis; read-out: Affinity cyno CD22
Sequence of cynomolgus Siglec-2/CD22 (A0A2K5WCZ6 entry or part of it): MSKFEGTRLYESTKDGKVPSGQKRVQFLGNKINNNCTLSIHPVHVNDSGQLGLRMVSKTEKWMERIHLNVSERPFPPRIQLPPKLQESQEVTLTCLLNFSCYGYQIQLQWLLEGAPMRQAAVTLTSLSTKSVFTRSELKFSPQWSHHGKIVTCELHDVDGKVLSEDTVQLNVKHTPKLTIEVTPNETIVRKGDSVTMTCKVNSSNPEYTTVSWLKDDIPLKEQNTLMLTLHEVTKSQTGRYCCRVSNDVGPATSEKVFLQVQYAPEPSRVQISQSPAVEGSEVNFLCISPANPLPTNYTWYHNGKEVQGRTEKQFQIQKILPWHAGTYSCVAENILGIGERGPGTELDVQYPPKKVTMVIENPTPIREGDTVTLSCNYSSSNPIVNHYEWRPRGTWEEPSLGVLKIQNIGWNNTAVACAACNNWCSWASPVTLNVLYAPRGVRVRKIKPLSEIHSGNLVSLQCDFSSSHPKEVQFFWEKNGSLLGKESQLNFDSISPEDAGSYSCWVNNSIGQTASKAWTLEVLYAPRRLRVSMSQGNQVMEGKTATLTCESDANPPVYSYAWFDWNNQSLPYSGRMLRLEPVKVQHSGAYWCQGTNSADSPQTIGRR
Summary of the method: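 Compound binding measured by steady-state SPR analysis, 120 s dissociation, in HEPES-NaCl-Tween buffer pH 7.5 containing 1% DMSO, DMSO solvent-corrected. Surface: cyno CD22, sialic acids first stripped by SialoExo for 4 h at 37° C., then amine-coupled onto CM5.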

Row | SMILES | Kd [1] [nM] | Kd [2] [nM] | Kd (cynomolgus Siglec-2/CD22) [nM]
1 | C#CCCOc1ccc(CO[C@]2(C(=O)O)C[C@H](O)[C@@H](NC(=O)CO)[C@H]([C@H](O)[C@H](O)CNC(=O)Cc3cccc(NC(C)=O)c3)O2)cc1 [Compound 164, (2R,4S,5R,6R)-6-((1R,2R)-3-(2-(3-acetamidophenyl)acetamido)-1,2-dihydroxypropyl)-2-((4-(but-3-yn-1-yloxy)benzyl)oxy)-4-hydroxy-5-(2-hydroxyacetamido)tetrahydro-2H-pyran-2-carboxylic acid] | 1000 to 10000 | 1000 to 10000 | 1000 to 10000
2 | C#CCOc1ccc(CO[C@]2(C(=O)O)C[C@H](O)[C@@H](NC(=O)CO)[C@H]([C@H](O)[C@H](O)CNC(=O)Cc3ccccc3F)O2)cc1 [Compound 165, (2R,4S,5R,6R)-6-((1R,2R)-3-(2-(2-fluorophenyl)acetamido)-1,2-dihydroxypropyl)-4-hydroxy-5-(2-hydroxyacetamido)-2-((4-(prop-2-yn-1-yloxy)benzyl)oxy)tetrahydro-2H-pyran-2-carboxylic acid] | 1000 to 10000 | < 1000 | 1000 to 10000
3 | C#CCOc1ccc(CO[C@]2(C(=O)O)C[C@H](O)[C@@H](NC(=O)CO)[C@H]([C@H](O)[C@H](O)CNC(=O)Cc3ccc(F)cc3)O2)cc1 [Compound 166, (2R,4S,5R,6R)-6-((1R,2R)-3-(2-(4-fluorophenyl)acetamido)-1,2-dihydroxypropyl)-4-hydroxy-5-(2-hydroxyacetamido)-2-((4-(prop-2-yn-1-yloxy)benzyl)oxy)tetrahydro-2H-pyran-2-carboxylic acid] | 1000 to 10000 | < 1000 | 1000 to 10000
4 | C#CCOc1ccc(CO[C@]2(C(=O)O)C[C@H](O)[C@@H](NC(=O)CO)[C@H]([C@H](O)[C@H](O)CNC(=O)Cc3cccc(F)c3)O2)cc1 [Compound 167, (2R,4S,5R,6R)-6-((1R,2R)-3-(2-(3-fluorophenyl)acetamido)-1,2-dihydroxypropyl)-4-hydroxy-5-(2-hydroxyacetamido)-2-((4-(prop-2-yn-1-yloxy)benzyl)oxy)tetrahydro-2H-pyran-2-carboxylic acid] | 1000 to 10000 | < 1000 | 1000 to 10000
5 | C#CCCOc1ccc(CO[C@]2(C(=O)O)C[C@H](O)[C@@H](NC(=O)CO)[C@H]([C@H](O)[C@H](O)CNC(=O)Cc3ccc(NC(C)=O)cc3)O2)cc1 [Compound 168, (2R,4S,5R,6R)-6-((1R,2R)-3-(2-(4-acetamidophenyl)acetamido)-1,2-dihydroxypropyl)-2-((4-(but-3-yn-1-yloxy)benzyl)oxy)-4-hydroxy-5-(2-hydroxyacetamido)tetrahydro-2H-pyran-2-carboxylic acid] | 1000 to 10000 | 1000 to 10000 | 1000 to 10000
6 | C#CCCOc1ccc(CO[C@]2(C(=O)O)C[C@H](O)[C@@H](NC(=O)CO)[C@H]([C@H](O)[C@H](O)CNC(=O)C(C)(O)c3ccccc3)O2)cc1 (stereo partly drawn) [Compound 169, (2R,4S,5R,6R)-2-((4-(but-3-yn-1-yloxy)benzyl)oxy)-6-((1R,2R)-1,2-dihydroxy-3-(2-hydroxy-2-phenylpropanamido)propyl)-4-hydroxy-5-(2-hydroxyacetamido)tetrahydro-2H-pyran-2-carboxylic acid] | > 10000 | 1000 to 10000 | 1000 to 10000
7 | C#CCCOc1ccc(CO[C@]2(C(=O)O)C[C@H](O)[C@@H](NC(=O)CO)[C@H]([C@H](O)[C@H](O)CNC(=O)C3(c4ccc(C(F)(F)F)cc4)CCOCC3)O2)cc1 [Compound 170, (2R,4S,5R,6R)-2-((4-(but-3-yn-1-yloxy)benzyl)oxy)-6-((1R,2R)-1,2-dihydroxy-3-(4-(4-(trifluoromethyl)phenyl)tetrahydro-2H-pyran-4-carboxamido)propyl)-4-hydroxy-5-(2-hydroxyacetamido)tetrahydro-2H-pyran-2-carboxylic acid] | 1000 to 10000 | 1000 to 10000 | 1000 to 10000
8 | C#CCCOc1ccc(CO[C@]2(C(=O)O)C[C@H](O)[C@@H](NC(=O)CO)[C@H]([C@H](O)[C@H](O)CNC(=O)C(OC)(c3ccccc3)C(F)(F)F)O2)cc1 (stereo partly drawn) [Compound 171, (2R,4S,5R,6R)-2-((4-(but-3-yn-1-yloxy)benzyl)oxy)-6-((1R,2R)-1,2-dihydroxy-3-(3,3,3-trifluoro-2-methoxy-2-phenylpropanamido)propyl)-4-hydroxy-5-(2-hydroxyacetamido)tetrahydro-2H-pyran-2-carboxylic acid] | 1000 to 10000 | 1000 to 10000 | 1000 to 10000
9 | C#CCCOc1ccc(CO[C@]2(C(=O)O)C[C@H](O)[C@@H](NC(=O)CO)[C@H]([C@H](O)[C@H](O)CNC(=O)C(F)(F)c3ccccc3)O2)cc1 [Compound 172, (2R,4S,5R,6R)-2-((4-(but-3-yn-1-yloxy)benzyl)oxy)-6-((1R,2R)-3-(2,2-difluoro-2-phenylacetamido)-1,2-dihydroxypropyl)-4-hydroxy-5-(2-hydroxyacetamido)tetrahydro-2H-pyran-2-carboxylic acid] | 1000 to 10000 | 1000 to 10000 | 1000 to 10000
10 | C#CCCOc1ccc(CO[C@]2(C(=O)O)C[C@H](O)[C@@H](NC(=O)CO)[C@H]([C@H](O)[C@H](O)CNC(=O)C3(c4ccccc4)CC3)O2)cc1 [Compound 173, (2R,4S,5R,6R)-2-((4-(but-3-yn-1-yloxy)benzyl)oxy)-6-((1R,2R)-1,2-dihydroxy-3-(1-phenylcyclopropane-1-carboxamido)propyl)-4-hydroxy-5-(2-hydroxyacetamido)tetrahydro-2H-pyran-2-carboxylic acid] | > 10000 | 1000 to 10000 | 1000 to 10000
11 | C#CCOCCOCCO[C@]1(C(=O)O)C[C@H](O)[C@@H](NC(=O)CO)[C@H]([C@H](O)[C@H](O)CNC(=O)Cc2ccc(OC)cc2)O1 [Compound 174, (2R,4S,5R,6R)-6-((1R,2R)-1,2-dihydroxy-3-(2-(4-methoxyphenyl)acetamido)propyl)-4-hydroxy-5-(2-hydroxyacetamido)-2-(2-(2-(prop-2-yn-1-yloxy)ethoxy)ethoxy)tetrahydro-2H-pyran-2-carboxylic acid] | 1000 to 10000 | 1000 to 10000 | 1000 to 10000
12 | C#CCOCCOCCO[C@]1(C(=O)O)C[C@H](O)[C@@H](NC(=O)CO)[C@H]([C@H](O)[C@H](O)CNC(=O)Cc2ccc(C)cc2)O1 [Compound 175, (2R,4S,5R,6R)-6-((1R,2R)-1,2-dihydroxy-3-(2-(p-tolyl)acetamido)propyl)-4-hydroxy-5-(2-hydroxyacetamido)-2-(2-(2-(prop-2-yn-1-yloxy)ethoxy)ethoxy)tetrahydro-2H-pyran-2-carboxylic acid] | 1000 to 10000 | 1000 to 10000 | 1000 to 10000
13 | C#CCOCCCCCCO[C@]1(C(=O)O)C[C@H](O)[C@@H](NC(=O)CO)[C@H]([C@H](O)[C@H](O)CNC(=O)Cc2ccc(-c3nnn[nH]3)cc2)O1 [Compound 176, (2R,4S,5R,6R)-6-((1R,2R)-3-(2-(4-(1H-tetrazol-5-yl)phenyl)acetamido)-1,2-dihydroxypropyl)-4-hydroxy-5-(2-hydroxyacetamido)-2-((6-(prop-2-yn-1-yloxy)hexyl)oxy)tetrahydro-2H-pyran-2-carboxylic acid] | < 1000 | < 1000 | < 1000
